The values that follow come from patent publication US11976038B1 (priority 2023, dated 2024).

Where two headings read alike, the source gives them in different places.

Data set [1] is classed as physicochemical. The procedure:
An appropriate amount of pure product of Embodiment 1 (about 50 mg) was weighed into a small aluminium box, and the weight of the sample was recorded after equilibration. For a thermogravimetric equipment, the temperature was selected to be 0° C. to 500° C., the heating rate to be 20° C./min, and the nitrogen flow rate to be 100 mL/min, and a thermogravimetric change curve was recorded. The initial reaction temperature was 300° C. according to a baseline extrapolation method. […] Curves A and B in FIG. 2 represent the rate of mass change and the mass change with increasing temperature, respectively.

For data set [2] the following is noted: background statement; cited from earlier work.
The conditions of data set [3]: background statement; cited from earlier work. The source holds these as a separate data set.
The conditions of data set [4]: corn oil, 200 ppm; for Conjugated diene value / Peroxide value / Acid value: 60° C., after 6 days; for Conjugated diene value: absorbance 232 nm.
For data set [5] the following is noted: corn oil, 200 ppm, oxidation induction time at 20° C. calculated from 100-130° C.
Setting [6] is: listed as Pure product of Comparative Example 4.
Where [7] appears, read: listed as Pure product of Comparative Example 5.

Turning to `Oc1ccc(C=Cc2cc(O)cc(O)c2)cc1` [Resveratrol, 3, 4′, 5-trihydroxystilbene], the “initial reaction temperature (thermal stability temperature)” value in data set [1] came out at 290 °C. Moreover, the solubility in oil in data set [2] was 0.98 µg/g. Besides, the oral bioavailability in data set [3] is on record as under 1%.

Take “resveratrol conjugated linoleate [Comparative Example 4]”: in data set [4] (setting [6]), the Conjugated diene value stood at 3.60 and the Peroxide value is listed as 27 meq/kg. In data set [5] (setting [6]), the Shelf life is 71.4 days.

For the compound “resveratrol nervonic acid ester [Embodiment 1]”, the “initial reaction temperature (thermal stability temperature)” value in data set [1] is 300 °C. In addition, the “antioxidant activity (DPPH radical scavenging activity)” value (10 mg in 1 mL 80% methanol, 30 min dark, 517 nm) is listed as 90.00%. For the setting “DPPH, ratio to resveratrol”, the “antioxidant activity relative to resveratrol” value is listed as 1.03 times. Moreover, in data set [4] (60° C., 0, 1, 3, 6 days), the “acid value versus resveratrol and blank control (FIG. 4)” value is “basically lower than those of resveratrol and blank control”; the “conjugated diene value versus resveratrol and blank control (FIG. 5)” value was “basically lower than those of resveratrol and blank control”; the “peroxide value versus resveratrol and blank control (FIG. 3)” value was “basically lower than those of resveratrol and blank control”. Moreover, in data set [4], the Acid value is listed as 0.55 mgKOH/g, the Peroxide value is listed as 26.5 meq/kg and the Conjugated diene value is listed as 3.33. For the same compound, the Shelf life in data set [5] is 78.2 days.

As for “resveratrol conjugated linoleate [Comparative Example 5]”, the Acid value in data set [4] worked out at 0.60 mgKOH/g. For the same compound, in data set [4] (setting [7]), the Conjugated diene value is on record as 3.65 and the Peroxide value was 27.5 meq/kg. Moreover, in data set [5] (setting [7]), the Shelf life is 71.3 days.
